pIC50: −log10 of the molar value. Converted amounts (≈) assume the structure as drawn.
Key:
[1] = Metabolic stability with human liver microsomes; type: in vitro ADME; settings: pH 7.6; pooled human liver microsomes, 37° C., 1 μM test compound, 1 mg/ml microsomal protein, NADPH; read-out: t1/2 INVITRO
[2] = Drug transport across human Caco-2 cells; type: in vitro ADME; settings: human, Caco-2 monolayers, pH 7.2, 37° C.; for Papp A→B at 10 µM: apical-to-basal, read-out: PEAB; for Papp B→A at 10 µM: basal-to-apical, read-out: PEBA
Description: Assay for Determination of Drug Transport Across Human Caco-2 Cells
The assay provides information on the potential of a compound to pass the cell membrane, on the extent of oral absorption as well as on whether the compound is actively transported by uptake and/or efflux transporters. For the measurement of permeability across polarized, confluent human cancer colon carcinoma cells 2 (Caco-2) cell monolayers grown on permeable filter supports are used as the in vitro absorption model.
Apparent permeability coefficients (PE) of the compounds across the Caco-2 monolayers are measured (pH 7.2, 37° C.) in apical-to-basal (AB) (absorptive) and basal-to-apical (BA) (secretory) transport direction. AB permeability (PEAB) represents drug absorption from the intestine into the blood and BA permeability (PEBA) drug secretion from the blood back into the intestine via both passive permeability as well as active transport mechanisms mediated by efflux and uptake transporters that are expressed on the Caco-2 cells. The compounds are assigned to permeability/absorption classes by comparison of the AB permeabilities with the AB permeabilities of reference compounds with known in vitro permeability and oral absorption in the human. Identical or similar permeabilities in both transport directions indicate passive permeation, vectorial permeability points to additional active transport mechanisms. […] Active transport is concentration-dependently saturable.
Caco-2 cells (1-2*10^5 cells/cm^2 area) are seeded on filter inserts (Costar transwell polycarbonate or PET filters, 0.4 μm pore size) and cultured (DMEM) for 10 to 25 days. Compounds are dissolved in appropriate solvent (like DMSO, 1-20 mM stock solutions). Stock solutions are diluted with HTP-4 buffer (128.13 mM NaCl, 5.36 mM KCl, 1 mM MgSO4, 1.8 mM CaCl2, 4.17 mM NaHCO3, 1.19 mM Na2HPO4×7H2O, 0.41 mM NaH2PO4×H2O, 15 mM HEPES, 20 mM glucose, pH 7.2) to prepare the transport solutions (typically 10 μM compound, final DMSO<=0.5%). The transport solution (TL) is applied to the apical or basolateral donor side for measuring A-B or B-A permeability (3 filter replicates), respectively. The receiver side contains HTP-4 buffer supplemented with 2% BSA. Samples are collected at the start and end of experiment from the donor and at various time intervals for up to 2 hours also from the receiver side for concentration measurement by LC-MS/MS or scintillation counting. Sampled receiver volumes are replaced with fresh receiver solution.
The apparent permeability coefficients (PEAB and PEBA) of selected compounds in the Caco-2 drug transport assay described above are listed in Table 9.

[3] = target: Human neutrophil elastase (Homo sapiens (Human), UniProt P08246); assay: Human Neutrophil Elastase Assay; type: biochemical; settings: substrate MeOSuc-Ala-Ala-Pro-Val-AMC 250 μM, pH 7.5, room temperature
Chain of Human neutrophil elastase (P08246 30-247): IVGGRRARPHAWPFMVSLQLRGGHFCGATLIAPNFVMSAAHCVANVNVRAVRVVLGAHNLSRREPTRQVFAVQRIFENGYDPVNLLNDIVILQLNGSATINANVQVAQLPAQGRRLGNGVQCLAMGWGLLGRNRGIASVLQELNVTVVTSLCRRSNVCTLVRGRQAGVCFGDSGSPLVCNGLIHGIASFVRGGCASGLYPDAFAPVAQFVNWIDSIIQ

[4] = target: neutrophil elastase in human plasma (Homo sapiens (Human), UniProt P08246); assay: Neutrophil elastase inhibitory activity in human plasma; type: biochemical; settings: human plasma assay (zymosan-stimulated blood plasma), substrate 250 μM, pH 7.5
Chain of neutrophil elastase in human plasma (P08246 30-247): as above

[5] = Aqueous solubility (High Throughput Method); type: physicochemical; settings: McIlvaine buffer pH 6.8 with 2.5% DMSO, aqueous buffer, kinetic from dmso stock; McIlvaine buffer pH 6.8, 2.5% DMSO, 24 h shaking
Experimental: Assay for Determination of Aqueous Solubility (“High Throughput Method”)
Starting from a 10 mM DMSO stock solution, aliquots are diluted with acetonitrile/water (1/1) and McIlvaine buffer pH 6.8, respectively. After 24 h of shaking, the solutions or suspensions are filtered and analyzed by LC-UV. The amount dissolved in buffer is compared to the amount dissolved in the acetonitrile/water (1/1) solution. Solubility is measured from 0.001 to 0.125 mg/ml at a DMSO concentration of 2.5%. If more than 90% of the compound is dissolved in buffer, the value is marked with “>”.

[6] = Metabolic stability with human hepatocytes; type: in vitro ADME; settings: human hepatocyte suspension (typically cryopreserved), 1 μM test compound, six hours, scaled with well stirred model
Experimental: Assay for the Determination of Metabolic Stability with Human Hepatocytes
The metabolic degradation of the test compound is assayed in a human hepatocyte suspension. Human hepatocytes (typically cryopreserved) are incubated in an appropriate buffer system (e.g. Dulbecco's modified eagle medium plus 3.5 μg glucagon/500 mL, 2.5 mg insulin/500 mL and 3.75 mg/500 mL hydrocortison) containing 5% species serum. Following a (typically) 30 min preincubation in an incubator (37° C., 10% CO2), 5 μl of test compound solution (80 μM; from 2 mM stock solution in DMSO diluted 1:25 with medium) are added into 395 μl hepatocyte suspension (cell density in the range 0.25-5*10^6 cells/mL, typically 1*10^6 cells/mL; final concentration of test compound 1 μM, final DMSO concentration 0.05%). The cells are incubated for six hours (incubator, orbital shaker) and samples (25 μl) are taken at 0, 0.5, 1, 2, 4 and 6 hours. Samples are transferred into acetonitrile and pelleted by centrifugation (5 min) The supernatant is transferred to a new 96-deepwell plate, evaporated under nitrogen and resuspended. The decline of parent compound is analyzed by LC-MS/MS.
The intrinsic clearance CL_[…] is calculated as follows: CL_[…]=Dose/AUC=(C0/CD)/(AUD+clast/k)*1′000/60 (C0: initial concentration in the incubation [μM], CD: cell density of vital cells [10^6 cells/mL], AUD: area under the data [μM*h], clast: concentration of last data point [μM], k: slope of the regression line for parent decline [h^−1])
The calculated in vitro hepatic intrinsic clearance can be scaled up to the intrinsic in vivo hepatic clearance and used to predict hepatic in vivo blood clearance (CL) by the use of a liver model (well stirred model): CL_[…]_INVIVO [ml/min/kg]=(CL_[…] [μL/min/10^6 cells]*hepatocellularity [10^6 cells/g liver]*liver factor [g/kg bodyweight])/1′000 CL [ml/min/kg]=CL_[…]_INVIVO [ml/min/kg]*hepatic blood flow [ml/min/kg]/(CL_[…]_INVIVO [ml/min/kg]+hepatic blood flow [ml/min/kg]) Qh [%]=CL [ml/min/kg]/hepatic blood flow [ml/min/kg]) (Hepatocellularity, human: 120*10^6 cells/g liver; liver factor, human: 25.7 g/kg bodyweight; blood flow, human: 21 ml/(min*kg))

[7] = Aqueous solubility (Shaked Flask Method); type: physicochemical; settings: aqueous buffer, thermodynamic from solid, pH 6.8 (McIlvaine buffer)
Experimental: Assay for Determination of Aqueous Solubility (“Shaked Flask Method”)
Saturated solutions are prepared in well plates by adding an appropriate volume of selected aqueous media (typically in the range of 0.25-1.5 ml) into each well which contains a known quantity of solid drug substance (typically in the range 0.5-5.0 mg). The wells are shaken or stirred for a predefined time period (typically in a range of 2-24 h) and then filtered using appropriate filter membranes (typically PTFE-filters with 0.45 μm pore size). Filter absorption is avoided by discarding the first few drops of filtrate. The amount of dissolved drug substance is determined by UV spectroscopy or by HPLC with UV-detection. In addition, the pH of the aqueous saturated solution is measured using a glass-electrode pH meter.

| half-life at 1 μM [1] | Papp A→B at 10 µM [2] | Papp B→A at 10 µM [2] | pIC50 [3] | pIC50 [4] | solubility at 24 h [5] | CLhep predicted at 1 μM [6] | solubility [7] | Compound |
| --- | --- | --- | --- | --- | --- | --- | --- | --- |
| > 2.17 h | 20 ×10⁻⁶ cm/s | 97 ×10⁻⁶ cm/s | > 9.00 | > 9.00 | 61 µg/mL (≈ 149 µM) | 2 mL/min/kg | – | CN1C(=O)N(c2cccc(C(F)F)c2)C2=C(C(=O)NCC2)[C@H]1c1ccc(C#N)cc1 [Example 8A, (R)-4-(1-(3-(Difluoromethyl)phenyl)-3-methyl-2,5-dioxo-1,2,3,4,5,6,7,8-octahydropyrido[4,3-d]pyrimidin-4-yl)benzonitrile] |
| > 2.17 h | 6.1 ×10⁻⁶ cm/s | 63 ×10⁻⁶ cm/s | 8.64 | 8.51 | 88 µg/mL (≈ 182 µM) | – | – | COC(=O)CN1C(=O)N(c2cccc(C(F)(F)F)c2)C2=C(C(=O)NCC2)C1c1ccc(C#N)cc1 (centres unmarked) [Example 9, Methyl 2-(4-(4-Cyanophenyl)-2,5-dioxo-1-(3-(trifluoromethyl)phenyl)-1,2,5,6,7,8-hexahydropyrido[4,3-d]pyrimidin-3(4H)-yl)acetate] |
| – | 6.9 ×10⁻⁶ cm/s | 61 ×10⁻⁶ cm/s | > 9.00 | > 9.00 | 19 µg/mL (≈ 41.6 µM) | 3 mL/min/kg | ≥ 10 µg/mL | CN1C(=O)N(c2cccc(C(F)(F)F)c2)C2=C(C(=O)NCC2)[C@H]1c1ccc(C#N)cc1CO [Example 32A, 3-(Hydroxymethyl)-4-[(4R)-3-methyl-2,5-dioxo-1-[3-(trifluoromethyl)phenyl]-1H,2H,3H,4H,5H,6H,7H,8H-pyrido[4,3-d]pyrimidin-4-yl]benzonitrile] |
| > 2.17 h | 5.7 ×10⁻⁶ cm/s | 100 ×10⁻⁶ cm/s | > 9.00 | > 9.00 | 84 µg/mL (≈ 167 µM) | 1 mL/min/kg | – | CN1C(=O)N(c2cccc(C(F)(F)F)c2)C2=C(C(=O)NCC2)C1c1ccc(C#N)cc1-c1ccncn1 (centres unmarked) [Example 35, 4-{3-Methyl-2,5-dioxo-1-[3-(trifluoromethyl)phenyl]-1H,2H,3H,4H,5H,6H,7H,8H-pyrido[4,3-d]pyrimidin-4-yl}-3-(pyrimidin-4-yl)benzonitrile] |
| > 2.17 h | 30 ×10⁻⁶ cm/s | 83 ×10⁻⁶ cm/s | > 9.00 | 8.64 | 42 µg/mL (≈ 80.7 µM) | – | ≥ 10 µg/mL | CN1CCC2=C(C1=O)C(c1ccc(C#N)cc1-c1cnn(C)c1)N(C)C(=O)N2c1cccc(C(F)(F)F)c1 (centres unmarked) [Example 36, 4-{3,6-Dimethyl-2,5-dioxo-1-[3-(trifluoromethyl)phenyl]4H,2H,3H,4H,5H,6H,7H,8H-pyrido[4,3-d]pyrimidin-4-yl}-3-(1-methyl-1H-pyrazol-4-yl)benzonitrile] |
| > 2.17 h | 32 ×10⁻⁶ cm/s | 90 ×10⁻⁶ cm/s | > 9.00 | 8.96 | 60 µg/mL (≈ 118 µM) | – | ≥ 10 µg/mL | CN1CCC2=C(C1=O)C(c1ccc(C#N)cc1-c1cnco1)N(C)C(=O)N2c1cccc(C(F)(F)F)c1 (centres unmarked) [Example 37, 4-{3,6-Dimethyl-2,5-dioxo-1-[3-(trifluoromethyl)phenyl]-1H,2H,3H,4H,5H,6H,7H,8H-pyrido[4,3-d]pyrimidin-4-yl}-3-(1,3-oxazol-5-yl)benzonitrile] |
| > 2.17 h | 4.2 ×10⁻⁶ cm/s | 59 ×10⁻⁶ cm/s | > 9.00 | > 9.00 | 78 µg/mL (≈ 161 µM) | – | – | CN1CCC2=C(C1=O)C(c1ccc(C#N)cc1C(N)=O)N(C)C(=O)N2c1cccc(C(F)(F)F)c1 (centres unmarked) [Example 39, 5-Cyano-2-{3,6-dimethyl-2,5-dioxo-1-[3-(trifluoromethyl)phenyl]-1H,2H,3H,4H,5H,6H,7H,8H-pyrido[4,3-d]pyrimidin-4-yl}benzamide] |
| > 2.17 h | 17 ×10⁻⁶ cm/s | 87 ×10⁻⁶ cm/s | > 9.00 | > 9.00 | – | 1 mL/min/kg | – | CN1C(=O)N(c2cccc(C(F)(F)F)c2)C2=C(C(=O)NCC2)C1c1ccc(C#N)cc1S(C)(=O)=O (centres unmarked) [Example 40, 3-Methanesulfonyl-4-{3-methyl-2,5-dioxo-1-[3-(trifluoromethyl)phenyl]-1H,2H,3H,4H,5H,6H,7H,8H-pyrido[4,3-d]pyrimidin-4-yl}benzonitrile] |

Source: patent US9657015B2, “Substituted bicyclic dihydropyrimidinones and their use as inhibitors of neutrophil elastase activity” (Boehringer Ingelheim International GmbH, priority 2014, dated 2017)
